# Measured values reported in US20110008343A1, “Method Of Reducing Tissue Loss In Pancreatic Islet Cell Transplantation” (priority 2007, published 2011).
# Entries after “also recorded” stand apart in the source; their conditions may differ.
# What was measured:
# [1] = Plasma APTT and LMW-DS concentration in transplanted monkeys; type: in vivo, Cynomolgus monkeys (Macaca fascicularis)
# Method: Blood samples: […] […] Analyses of blood and plasma samples: Activated Partial Thromboplastin Time (APTT) measurements were performed as previously described (Johansson et al., (2006) Am J. Transplant. 6 (2): 305).
# [2] = Blood cell counts, liver and renal function in monkeys transplanted with porcine islets; type: in vivo, Cynomolgus monkeys (Macaca fascicularis); conditions: 24 hours after islet transplantation; in U/L (unit assumed)
# [3] = test system: porcine islet grafts; assay: Histological evaluation of grafted pig islets 24 h after intraportal transplantation
# [4] = test system: porcine islets; assay: Binding of C3b/iC3b to porcine islets incubated in human hirudin-treated plasma; type: cell-based, pig; conditions: compstatin 10 μM
# Method: Treatment of porcine islets with human plasma: Approximately 1000 pig islets/40 μL of plasma (typically 5000 islets in 200 μL) were incubated in human hirudin-treated plasma in heparinized test tubes. Five different islet preparations and five different plasma preparations were used in these experiments. In some experiments, hirudin-treated plasma was preincubated with 10 μM (final concentration) of the potent compstatin analog, Ac-ICV(1MeW)[…]-NH2 (SEQ ID NO: 4; Katragadda et al., (2006) J Med. Chem. 49 (15): 4616), for 15 minutes at 37° C. before the islets were added. The mixture of islets and plasma was then incubated, with gentle shaking, at 37° C. for up to 30 min. […]
# For all immunostaining experiments, the islets were incubated, while gently rotating on ice, for 30 minutes in the presence of an individual antibody. After being washed with PBS, the islets were treated with 1% formaldehyde (Apoteket, Gothenburg, Sweden) and kept on ice until analyzed.
# Complex object parametric analyzer and sorter (COPAS) analysis: The fluorescence-stained islets were analyzed using a complex object parametric analyzer and sorter (COPAS; Union Biometrica, Somerville, Mass.), which is a large particle-based flow cytometry instrument previously used for islet analysis (Fernandez et al., (2005) Transplantation 80 (6): 729). […]
# [5] = test system: human islets; assay: C-peptide release from human islets in AB0-compatible plasma (ELISA); type: cell-based; conditions: 30 minutes at 37° C., 10 μM compstatin
# Method: (§1) Analysis of islets by COPAS and confocal microscopy: Approximately 5000 islets were added to 200 μl of human AB0-compatible hirudin-plasma or whole blood in heparinized test tubes. In some experiments, AB0-compatible hirudin-treated plasma was pre-incubated with or without 10 μM Ac-ICV(1MeW)[…]-NH2 (SEQ ID NO: 4; Katragadda et al., (2006) J Med Chem 49:4616-4622), a potent compstatin analog, for 15 minutes at 37° C. before the islets were added. The mixture of islets and plasma was incubated, with gentle shaking, at 37° C. for up to 30 minutes.
# After centrifugation and addition of 10 mM EDTA (final concentration), the supernatants were stored at −70° C. The remaining islets were washed twice in cold PBS as described above. In order to visualize necrotic cells, propidium iodide (PI) was added to the islets 5 minutes before COPAS analysis. Islets that had not been incubated in plasma were used as controls. The islets were also examined by confocal microscopy.
# C-peptide: Plasma was diluted 1/200 and analyzed using a C-peptide ELISA (Mercodia, Uppsala, Sweden).
# [6] = test system: human islets; assay: Binding of C3b/iC3b to human islets incubated in AB0-compatible hirudin-treated plasma (COPAS, confocal microscopy); type: cell-based
# Method: (§2) Complex object parametric analyzer and sorter (COPAS) analysis: The fluorescence-stained islets were analyzed using a complex object parametric analyzer and sorter (COPAS; Union Biometrica, Somerville, Mass.), which is a large-particle-based flow cytometry instrument. One thousand islets were collected using a 488/514 multi-line laser, and positive cells were sorted out for further analysis by confocal microscopy. The COPAS flow cytometry data were analyzed using CellQuest™ Pro software (BD Biosciences Immunocytometry Systems). Data are reported as mean fluorescent intensity (MFI).
# Confocal microscopy: Stained islets were contained in a drop of PBS in a small Petri dish and protected from light before examination in the confocal microscope (Zeiss 510 Meta confocal, Carl Zeiss, Jena, Germany). Examination of the stained islets was performed using the 488-nm laser at 10× magnification. […]
# FITC-labeled antibodies recognizing the following proteins were diluted and used according to the manufacturer's recommendations: Clq (AbCam, Cambridge, UK), C3c (for detection of C3b and iC3b), C4, C9, mannose-binding lectin (MBL), IgG, and IgM (DakoCytomation, Glostrup, Denmark). […] After washing, the islets were treated with 1% formaldehyde (Apoteket, Gothenburg, Sweden) and held on ice until analyzed by COPAS and confocal microscopy.
# [7] = test system: C3a and sC5b-9; assay: C3a and sC5b-9 generation in supernatants of plasma-incubated human islets (ELISA); type: cell-based
# Method: as §1
# (§3) After centrifugation and addition of 10 mM EDTA (final concentration), the supernatants were stored at −70° C. The remaining islets were washed twice in cold PBS as described above. […]
# C3a: Plasma was diluted 1/1000 in working buffer and analyzed as described previously (Enkdahl et al., 1992, Scand J Immunol 35: […]). […] Bound C3a was detected with biotinylated rabbit anti-C3a diluted 1/150, followed by HRP-conjugated streptavidin (Amersham, Little Chalfort, UK), diluted 1/500. […]
# sC5b-9: Plasma was analyzed using a modification of the EIA described by Mollnes et al., 1985, Scand J Immunol 22: 197-202. Plasma diluted 1/5 was added to microtiter plates coated with anti-neoC9 monoclonal antibody MCaE11. sC5b-9 was detected with a polyclonal anti-C5 antibody diluted 1/500 (Dako A/S, Denmark), followed by HRP-conjugated anti-rabbit Ig diluted 1/500 (Dako). […]
# [8] = test system: human islets; assay: Lysis of islet cells, PI staining analysed by COPAS; type: cell-based; conditions: AB0-compatible plasma, 37° C., 30 minutes, 10 μM compstatin
# Method: as §2, §1, §3
# [9] = test system: complement activation; assay: Complement inhibition assay in 10% human serum (bound C3 fragments in microtiter wells); type: biochemical
# Method: Complement inhibition assay: One hundred microliters of 10% human serum (v/v), diluted in veronal buffer with 1 mM Ca^2+, 0.3 mM Mg^2+, 1% (w/v) BSA, and 0.05% (v/v) Tween 20, was incubated in the presence of serially diluted LMW-DS and/or compstatin in wells of microtiter plates for 30 minutes at 37° C. The wells were then washed with PBS containing 0.05% (v/v) Tween 20, and the bound C3 fragments were detected using […], of HRP-conjugated anti-C3c (Dako AS, Glostrup, Denmark).
# [10] = test system: IBMIR
# Method: Blood samples: All blood samples from monkeys were drawn from a femoral vein catheter at 0, 20, and 40 min and at 1, 3 and 24 h after transplantation. Blood was drawn from healthy human blood donors into 7-mL tubes containing […] of hirudin, a specific inhibitor of thrombin (Refludan; Pharmion Ltd, Cambridge, UK). To obtain plasma, the samples were centrifuged at 4500×g for 5 min. If not immediately analyzed for activated partial thromboplastin time (APTT), the samples were stored at −70° C.
# Platelet counts and differential leukocyte counts were obtained using a Coulter ACT-diff analyzer (Beckman Coulter, Miami, Fla.) and EDTA-treated blood. Plasma levels of thrombin-antithrombin (TAT) were quantified using commercially available EIA kits (TAT, Behringswerke, Marburg, Germany). C3a generation was measured in plasma according to the method of Nilsson Ekdahl et al. ((1992) Scand J. Immunol. 35 (1): 85), and sC5b-9 was analyzed using a modification of the enzyme immunoassay described by Nilsson Ekdahl et al. ((1992) Scand J. Immunol. 35 (1): 85) and Mollnes et al. ((1995) Artif Organs 19 (9): 909).
# [11] = test system: porcine islet grafts; assay: Immunohistochemical staining of grafted pig islets 24 h after intraportal transplantation
# [12] = both treated monkeys compared to the controls
substance,measurement,setting,value
Heparin,APTT,"[1]; heparin-treated monkeys, throughout the whole study period",25 to 40 s (s)
same,ALT,[2],116.8±47.7
same,AST,[2],288.0±130.4
same,completely preserved islets (score 0 in all categories),[3]; control monkey M-10,22%
Ac-ICV(1MeW)QDWGAHRCT-NH2 [compstatin],binding of C3b/iC3b to the islets,[4],significantly reduced
same,release of C-peptide,[5],totally inhibited
same,C3b/iC3b binding by confocal microscopy,"[6]; human islets in plasma, 5 and 30 minutes",totally prevented
same,binding of C3b/iC3b to the islets,"[6]; human islets, AB0-compatible plasma, compstatin 10 μM, COPAS",significantly reduced; also recorded: abolished
same,"generation of fluid-phase complement activation products (C3a, sC5b-9)","[7]; human islets, AB0-compatible plasma, compstatin 10 μM",abrogated
same,PI staining (lysis of islet cells),[8],totally abrogated
same,inhibition of complement activation,[9]; compstatin 5 μM,total inhibition
same,inhibition of complement activation,[9]; compstatin above 0.5 μM,gradually inhibited
same,inhibition of complement activation,[9]; compstatin below 0.5 μM,no effect
hirudin,generation of C3a and sC5b-9,"[7]; islets in whole blood anticoagulated with hirudin, n=4",no effect
Low molecular weight dextran sulfate [LMW-DS],APTT,"[1]; LMW-DS-treated monkeys, 15 minutes after islet infusion",around 100 s
same,APTT,"[1]; monkey M-5, after 24 hours",101 s
same,APTT,"[1]; monkey M-7, after 24 hours",66 s
same,APTT,"[1]; monkey M-9, after 24 hours",107 s
same,increase of coagulation marker TAT,[10]; LMW-DS-treated monkeys vs heparin controls,effectively inhibited
same,complement activation parameter C3a,[10]; [12],suppressed
same,complement activation parameter sC5b-9,[10]; [12],suppressed
same,TAT,[10]; monkey M-5,totally suppressed
same,histology of the transplanted grafts,"[3]; 24 h after transplantation, semiquantitative scoring",well kept
same,completely preserved islets (score 0 in all categories),[3]; monkey M-6 as printed,37.2%
same,completely preserved islets (score 0 in all categories),[3]; monkey M-9,44%
same,inhibition of complement activation,"[9]; LMW-DS above 100 mg/L, absence of compstatin",more pronounced
same,inhibition of complement activation,"[9]; LMW-DS between 10 and 100 mg/L, absence of compstatin",only marginally
same,deposition of C3 fragment and C9 on the surface of the islets,[11]; 24 h grafts,no clear inhibition
same,CD3+ T cell infiltration,[11]; vs controls M8 and M10,effectively suppressed
same,CD68+ macrophages in grafts,"[11]; vs heparin controls, p=0.002",abrogated
same,neutrophil elastase positive PMNs in grafts,"[11]; vs heparin controls, p=0.04",abrogated
same,CD41+ platelets in grafts,"[11]; vs heparin controls, p=0.056",abrogated
